Measurements published in patent publication US6818391B2, “Glutamate transporters” (The Regents of the University of California, priority 2000, dated 2004).
Values joined by “and” are separate entries in the source; they are usually repeats but may differ in a detail not shown here. Identical values can stand only once. “Also recorded” adds a separate entry of the source.

What was measured:
DNPI/VGLUT2 = target: T1, DNPI/VGLUT2 (Rattus norvegicus, UniProt Q9JI12); assay: 3H-L-glutamate uptake by membranes from PC12 cells expressing DNPI/VGLUT2; assay type: biochemical
T1 construct: To reconstruct the full open reading frame, the missing segment was amplified from rat brain cDNA by PCR; expressed in transfected cells; light membranes prepared from them
T1 sequence (Q9JI12 1-582): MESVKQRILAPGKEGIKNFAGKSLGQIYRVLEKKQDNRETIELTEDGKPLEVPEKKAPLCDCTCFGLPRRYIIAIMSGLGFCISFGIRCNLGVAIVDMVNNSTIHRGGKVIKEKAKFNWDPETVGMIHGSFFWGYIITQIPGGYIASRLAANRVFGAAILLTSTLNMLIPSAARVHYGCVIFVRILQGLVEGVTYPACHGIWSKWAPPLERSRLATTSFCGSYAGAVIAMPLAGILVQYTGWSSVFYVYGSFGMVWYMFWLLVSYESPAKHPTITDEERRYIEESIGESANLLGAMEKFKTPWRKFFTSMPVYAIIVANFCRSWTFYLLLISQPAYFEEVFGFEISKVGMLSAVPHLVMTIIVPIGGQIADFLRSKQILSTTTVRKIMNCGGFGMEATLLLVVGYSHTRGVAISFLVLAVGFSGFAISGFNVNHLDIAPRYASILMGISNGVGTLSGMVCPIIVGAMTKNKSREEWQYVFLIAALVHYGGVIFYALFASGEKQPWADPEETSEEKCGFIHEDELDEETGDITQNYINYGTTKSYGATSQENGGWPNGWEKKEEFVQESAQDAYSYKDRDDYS
Method: PC12 cells were grown in Dulbecco's modified Eagle's medium containing 10% equine serum, 5% calf serum and transfected by electroporation with the rat DNPI/VGLUT2 cDNA subcloned in the pcDNA3 vector containing an […] (Krantz et al. (2000) J. Cell Biol. 149). Stable transformants were selected for resistance to the neomycin analog G418 (500 μg/ml) and screened by immunofluorescence with the DNPI antibody, resulting in the identification of two independent clones with more than 80% of the cells expressing DNPI.
For membrane preparation, untransfected and DNPI-expressing PC12 cells were grown on 15 cm plates, washed with calcium- and magnesium-free PBS, collected in 0.32 M sucrose/10 mM HEPES-KOH, pH 7.4 (SH buffer) containing protease inhibitors (2 μg/ml leupeptin, 1 μg/ml pepstatin, 1 μg/ml E64, 0.2 mM diisopropylfluorphosphate, 2 μg/ml aprotinin, and 1.25 mM MgEGTA), homogenized using a ball bearing device and the homogenate sedimented at 1000 g for 5 min to remove nuclei and debris. The supernatant was then sedimented at 27,000 g for 35 min to remove heavier membranes. The remaining light membranes including small synaptic-like microvesicles were then sedimented at 210,000 g for 1 hour. The pellet was resuspended in SH buffer with protease inhibitors at ˜10 mg protein/ml.
To initiate the transport reaction, 20 μl membranes (˜200 μg protein) were added to 180 μl SH buffer containing 4 mM KCl, 4 mM MgSO4, […], and 100 μM ^3H-L-glutamate, with other additions noted in the text and figure legends. The reaction mixture was incubated at 29° C. for varying intervals, uptake was terminated by rapid filtration through Supor-200 membranes (Gelman) and the filters were washed rapidly four times with 1.5 ml cold 0.155 M potassium tartrate/10 mm HEPES-KOH, pH 7.4 before measuring the bound radioactivity by scintillation counting in 3 ml Cytoscint (ICN). Uptake specifically mediated by DNPI/VGLUT2 was determined by subtracting the background uptake of untransfected cell membranes from the uptake by transfected cell membranes. To examine the chloride dependence of transport, varying proportions of 0.14 M K gluconate and 0.14 M KCl were mixed in the standard reaction buffer (without sucrose) to vary the chloride concentration and maintain constant osmolarity. The ionophores nigericin and valinomycin used in FIG. 13E were prepared as 200× stock solutions in ethanol. The final ethanol concentration in the reaction mixture was 1%.

BNPI (VGLUT1) = target: T2, BNPI (VGLUT1) (Rattus norvegicus, UniProt Q62634); assay: acridine orange fluorescence quenching (vesicle acidification) of BNPI-expressing membranes; assay type: biochemical; conditions: for acidification of BNPI-expressing versus control membranes: 90 mM chloride (KCl)
T2 construct: expressed in transfected cells; light membranes prepared from them
T2 sequence (Q62634 1-560): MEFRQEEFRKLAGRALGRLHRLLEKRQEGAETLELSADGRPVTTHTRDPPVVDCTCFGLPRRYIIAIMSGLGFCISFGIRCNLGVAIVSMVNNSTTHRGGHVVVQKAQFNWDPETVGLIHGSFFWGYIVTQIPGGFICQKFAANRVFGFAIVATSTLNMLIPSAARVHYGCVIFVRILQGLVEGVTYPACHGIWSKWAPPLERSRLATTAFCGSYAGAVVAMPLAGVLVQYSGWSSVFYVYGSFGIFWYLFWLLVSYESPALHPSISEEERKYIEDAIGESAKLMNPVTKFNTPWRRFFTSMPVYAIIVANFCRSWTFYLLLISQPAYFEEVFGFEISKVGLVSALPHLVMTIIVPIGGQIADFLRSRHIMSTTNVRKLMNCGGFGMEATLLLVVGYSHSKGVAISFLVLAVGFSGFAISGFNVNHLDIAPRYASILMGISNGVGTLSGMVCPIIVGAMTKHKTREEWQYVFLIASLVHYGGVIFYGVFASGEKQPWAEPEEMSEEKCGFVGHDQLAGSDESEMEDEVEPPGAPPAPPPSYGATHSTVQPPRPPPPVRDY
Method: Native synaptic vesicles acidify during glutamate uptake (Maycox et al. (1988) J. Biol. Chem., 263: 15423). Glutamate presumably serves as a counterion for protons and dissipates ΔΨ, enabling the vacuolar H+-ATPase to generate a larger ΔpH, but cotransport of H+ with glutamate remains an alternative possibility. To determine whether acidification also accompanies glutamate transport by BNPI, we used the quenching of acridine orange fluorescence to measure vesicle pH. Membranes (200 μg of protein) were diluted into 2 ml of 0.3 M sucrose and 10 mM tris-Mops (pH 7.4) containing 4 mM MgSO4 and 5 μM acridine orange and incubated at 37° C. with continuous stirring. Fluorescence was monitored with a Hitachi F4500 spectrofluorimeter at an excitation wavelength of 492 nm and emission of 530 nm. Separate measurements were made with at least three different membrane preparations for wild-type and transfected cells; representative tracings are shown in FIG. 5.

SMILES	inhibition of DNPI-mediated 3H-L-glutamate uptake (DNPI/VGLUT2; 10 mM, uptake at 5 minutes)	Km (DNPI/VGLUT2; initial rate at 1 minute, 0.03-10 mM L-glutamate, Lineweaver-Burke)	acidification (lumenal pH) of membranes expressing BNPI (BNPI (VGLUT1); 10 mM glutamate, with ATP and 4 mM KCl)	effect on rate of chloride-dependent acidification of BNPI membranes (BNPI (VGLUT1); 10 mM, KCl 20, 50, 140 mM)	effect on acidification of BNPI-expressing membranes by chloride (BNPI (VGLUT1); 10 mM, listed as Glutamate)	effect on acidification of BNPI-expressing membranes by chloride (BNPI (VGLUT1); 10 mM, listed as glutamate)	specific 3H-L-glutamate uptake by DNPI at high chloride (DNPI/VGLUT2; 140 mM chloride)	chloride concentration for maximal 3H-L-glutamate uptake by DNPI (DNPI/VGLUT2; uptake at 5 minutes)	acidification of BNPI-expressing versus control membranes (BNPI (VGLUT1))	acidification of BNPI-expressing versus control membranes (BNPI (VGLUT1); listed as KCl)
N[C@@H](CCC(=O)O)C(=O)O [L-Glutamate]	markedly inhibits	4.7 mM and ~5 mM	reduced the lumenal pH; also recorded: acidifies membranes expressing BNPI	reduces the rate of acidification	blocks this chloride conductance; also recorded: reduces the acidification	decreased the acidification produced by chloride				
Cl [chloride]							little or no specific uptake is detectable	2 to 10 mM and ~2 mM	produces more acidification	considerably greater
